In ChEMBL document CHEMBL3507680, “University of Dundee, Gates Library screen for HepG2 cell viability”:

Test: Human HepG2 cell viability assay in 384 well format
Format: toxicity, cell-based
Parameters: dose 125 nL, time 70.5 hour; concentration not given beside the values
Settings: HepG2 cells, read-out: Inhibition

| Compound | cytotoxicity at 70.5 h [%] |
| --- | --- |
| CCOc1ccc(C(=O)N2CCCC2c2c(C)nn(C)c2OC)cn1 (centres undefined) | -4.47 |
| CS(=O)(=O)N1CCC(NC(=O)COc2ccc(Br)cc2Cl)CC1 | 30.2 |
| CC(C)C(C)NC(=O)Nc1ccc(F)c(C(N)=O)c1 (centres undefined) | -3.91 |
| CCOc1ncccc1C(=O)NC1CCCN(c2ncccn2)C1 (centres undefined) | 1.87 |
| CC(CNC(=O)c1ccc(=O)[nH]n1)N1CCc2ccccc21 (centres undefined) | 2.77 |
| CS(=O)(=O)N1CCC(NC(=O)COc2ccc(Cl)cc2)CC1 | -4.42 |
| COc1cccc(CNCc2ccc(NC(=O)NC(C)C)cc2)c1 | 7.1 |
| Cc1cccc(CNCc2ccc(NC(=O)NC(C)C)cc2)c1 | 2.57 |
| CCOc1cccc(CNCc2ccc(NC(=O)NC(C)C)cc2)c1 | 4.86 |
| COC(=O)c1cccn1C1CCN(Cc2nc3ccccc3o2)CC1 | -3.04 |
| CN(Cc1ccc(F)cc1)C(=O)CN1CCOC(Cn2cccn2)C1 (centres undefined) | 0.224 |
| CN(Cc1ccco1)C(=O)CN1CCOC(Cn2cccn2)C1 (centres undefined) | -1.5 |
| CC(C)CCOCCNC(=O)Nc1ccc(F)c(C(N)=O)c1 | -1.3 |
| O=S(=O)(CCNC1CCc2ncnn2C1)c1ccc(Cl)cc1 (centres undefined) | -1.07 |
| O=S(=O)(CCCN1CCCC(Cn2cncn2)C1)c1ccccc1 (centres undefined) | 4.82 |
| O=C(c1cc(Cl)ccc1F)N1CCCC1Cn1cccn1 (centres undefined) | 22.7 |
| Cc1cnn(CC2CCCN2C(=O)c2ccc(F)c(F)c2)c1 (centres undefined) | -0.479 |
| COC(=O)c1cccn1C1CCN(Cc2cnc3ccccn23)CC1 | 10.2 |
| COc1cccc(OCC(=O)NS(=O)(=O)c2ccc(Br)s2)c1 | 0.256 |
| CCc1n[nH]c(C2CN(C(=O)Cc3cccs3)CCO2)n1 (centres undefined) | 25.1 |
| CC(=O)N(Cc1noc(C)n1)C1CCN(Cc2cccc(C#N)c2)C1 (centres undefined) | 30.1 |

| Compound | cytotoxicity at 70.5 h [%] |
| --- | --- |
| Cc1csc(C2CCCCN2C(=O)CN(C)C(C)C)n1 (centres undefined) | 25.2 |
| CC(C)(C)c1ncc(CNCC2CCCN2c2cccnn2)s1 (centres undefined) | 5.55 |
| CCN(CC)CC(=O)N1CCCCC1c1nc(C)cs1 (centres undefined) | -2.06 |
| CSc1ccc(C)c(C(=O)N2CCCC(n3cncn3)C2)c1 (centres undefined) | -2.61 |
| OCC1CCCN1c1cc(NCc2cccs2)ncn1 (centres undefined) | 17.3 |
| FC(F)CN1CCOC(Cn2cccn2)C1 (centres undefined) | -3.37 |
| COc1ccc(C(C)NC(=O)Cn2ccc(=O)n(C)c2=O)cc1F (centres undefined) | -2.29 |
| CC(NC(=O)Cn1ccc(=O)n(C)c1=O)c1cc(F)ccc1F (centres undefined) | -1.78 |
| CN(C)c1cc(CNC(=O)Nc2nccs2)ccn1 | -1.57 |
| COc1cc(CNC(=O)Nc2nnc(C(C)C)s2)ccn1 | 1.23 |
| CN(C)c1cc(CNC(=O)Nc2nnc(C3CC3)s2)ccn1 | 1.07 |
| CN(C)c1cc(CNC(=O)Nc2nncs2)ccn1 | -0.639 |
| Cc1nn(C)c(N(C)C)c1CNCc1ccc(C(=O)N(C)C)cc1 | 4.69 |
| O=C(Cc1cn2ccccc2n1)N1CCCC(n2cccn2)C1 (centres undefined) | 23.8 |
| Cc1cc(C)n(C2CCCN(C(=O)c3cc(C(N)=O)cs3)C2)n1 (centres undefined) | 0.983 |
| Cc1cc(C(=O)N2CCCC(n3ccnc3)C2)c(C)n1C1CC1 (centres undefined) | 1.06 |
| Cc1nn(C)c(C)c1C1CCCN1Cc1nc(N)c2ccccc2n1 (centres undefined) | -2.07 |
| Cc1nn(C)c(C)c1C1CCCN1Cc1nc2ccccc2c(=O)[nH]1 (centres undefined) | -0.414 |
| Cc1ccc(S(C)(=O)=O)cc1C(=O)N1CCCC(n2cncn2)C1 (centres undefined) | -3.44 |
| COc1ccc(C)cc1C(=O)N1CCCC(n2cncn2)C1 (centres undefined) | -3.25 |
| CC(C)c1n[nH]c(C2CN(CCc3cccs3)CCO2)n1 (centres undefined) | -6.41 |

| Compound | cytotoxicity at 70.5 h [%] |
| --- | --- |
| CC(=O)N(Cc1ncc(C)o1)C1CCN(Cc2ccccc2C#N)C1 (centres undefined) | -3.02 |
| Cc1nn(C)c(C)c1C1CCCN1Cc1nc2ccccc2n1C (centres undefined) | 0.883 |
| Cc1nccc(CNc2cc(N3CCCC3CO)ncn2)n1 (centres undefined) | 2.68 |
| Cc1cnn(CC2CCCN2Cc2nccn2CC(F)(F)F)c1 (centres undefined) | 0.0433 |
| CCN1CCC(NC(=O)CN2CCc3c(ncn3C3CC3)C2)CC1 | -9.11 |
| COc1cccc(COCC(=O)N2CCCC(c3nncn3C)C2)c1 (centres undefined) | -12.7 |
| O=C(NCc1ccc(-n2cncn2)nc1)c1ccc2c(c1)CCO2 | -10.1 |
| CC(NC(=O)Nc1cccnc1N1CCCC1)c1nncn1C (centres undefined) | -13.7 |
| O=C(NCc1ccc(-n2cncn2)nc1)c1ccoc1 | 22.2 |
| CC(NC(=O)COc1ccc(F)cc1)c1nnc2n1CCCCC2 (centres undefined) | -4 |
| CN1CCC(C(=O)NCc2nncn2-c2ccccc2)CC1=O (centres undefined) | -16.9 |
| Cc1nn(C)c(C)c1C1CCCN1CC(=O)NC(C1CC1)C1CC1 (centres undefined) | -2.06 |
| CCCn1[nH]cc/c1=N\C(=O)CN1CCCC1c1c(C)nn(C)c1C (centres undefined) | 16.9 |
| Cc1nc(C)n(C2CCCN(C(=O)c3cnc[nH]3)C2)n1 (centres undefined) | -7.11 |
| CC(C)c1nc(C2CCCN2CCCc2nc3ccccc3o2)no1 (centres undefined) | -12.9 |
| Cc1cccc(CCC(=O)N2CCCC(c3cc(C(N)=O)[nH]n3)C2)c1 (centres undefined) | 19 |
| Cc1cnn(CCNCc2nnc(C3CC3)o2)c1 | 11.6 |
| O=C(NCC(=O)N1CCc2ccccc2C1)c1ccoc1 | 10.2 |
| CN(C)c1ccc(NC(=O)NCc2ccccn2)cn1 | -13.6 |
| Cc1ccc(F)cc1S(=O)(=O)NCc1cccnc1N(C)C | -10.3 |
| COc1cc(C)c(S(=O)(=O)NCc2cccnc2N(C)C)c(C)c1 | -5.54 |

| Compound | cytotoxicity at 70.5 h [%] |
| --- | --- |
| O=C(NCCn1ccnc1)N1CCN(c2nccs2)CC1 | 16.8 |
| CCC1CN(C(=O)NCCOc2ccc3c(c2)OCO3)CCO1 (centres undefined) | -19.8 |
| Cn1ccc(C(=O)NCc2cccc(N3CCCCC3=O)c2)cc1=O | -4.99 |
| COCCN1CCCN(C(=O)NC(C)Cn2cccn2)CC1 (centres undefined) | -14.2 |
| Cc1noc(C(C)C)c1C(=O)NCCCN1CCCC1 | -6.55 |
| O=C(c1ccc(F)cc1Cl)N1CCC(Nc2cccnn2)CC1 | -7.6 |
| Cn1cc(CC(=O)N2CCC(Nc3cccnn3)CC2)c2ccccc21 | -4.98 |
| CCn1nc2c(cc1=O)CN(CC(=O)Nc1nc(C)c(C)s1)CC2 | -13.9 |
| CCCn1nc2c(cc1=O)CN(CC(=O)Nc1ccncc1)CC2 | -17.2 |
| CCc1n[nH]c(C2CN(C(=O)c3nc(C)n4ccccc34)CCO2)n1 (centres undefined) | -20.1 |
| CC(NC(=O)CCn1cncn1)c1nnc2n1CCCCC2 (centres undefined) | -13.5 |
| CCN1CCN(CC(C)(O)c2cccc(C(F)(F)F)c2)CC1 (centres undefined) | -10.9 |
| CCc1n[nH]c(C2CN(C(=O)c3nc(C)ncc3Cl)CCO2)n1 (centres undefined) | -7.75 |
| c1ccc(-n2ncc(CN3CCCC3Cn3cccn3)n2)cc1 (centres undefined) | -15.5 |
| CC(C)CCC(=O)NC(C)c1nnc2n1CCCCC2 (centres undefined) | -6.87 |
| Cc1nc(CN(C)C2CCN(CCCOc3ccccc3)C2)no1 (centres undefined) | 39.5 |
| CS(=O)(=O)N1CCC(NC(=O)COc2ccc(Cl)c(Cl)c2)CC1 | -8.67 |
| CN1CCC/C1=N\S(=O)(=O)c1ccc(NC(=O)c2cccs2)cc1 | -2.28 |
| Cc1cc(C)cc(OCC(=O)NC2CCN(S(C)(=O)=O)CC2)c1 | 23.8 |
| Cc1cc(NC(=O)NCC(C)N2CCc3ccccc32)no1 (centres undefined) | -5.5 |
| COc1c(CNC2CCc3cc(F)ccc32)c(C)nn1C (centres undefined) | -15.1 |
